One test deals with T1, Orai1/STIM1 (Homo sapiens, UniProt Q96D31).
T1 construct: expressed in transfected cells
Kind of test: Fluorescence-based assay of store-operated calcium entry in Orai1/STIM1 stable cells. More on the design: key to Orai1/STIM1 (IC50, μmol): A < 0.6 μmol; 0.6 μmol ≦ B ≦ 1.2 μmol; C > 1.2 μmol; — = no fit. The settings on record: HEK-293 cells stably expressing human STIM1 and Orai1, 50% inhibition of Peak-Basal fluorescence signal; for IC50: read-out: Orai1/STIM1 (IC50, μmol). It is filed as cell-based. The procedure:
A. Fluorescence-Based Assay of Store-Operated Calcium Entry in Orai1/STIM1 Stable Cells.
Cells stably expressing recombinant human STIM1 and Orai1 are generated by transfecting a human Orai1 expression plasmid (pcDNA3.1-Orai1-cmyc) into HEK-293 cells stably overexpressing human STIM1 (Roos et al. 2005 JCB 169(3): 435-445). Colonies of cells stably expressing both STIM1 and Orai1 proteins are selected and then subcloned by limiting dilution. Cells were cultured at 37° C./6% CO2 in complete medium with 10% FBS and appropriate selection markers.
The day prior to performing the assay Orai1/STIM1 stable cells are plated in 50 μL of complete medium at 90-95% confluence in a 384 well plate. Cells are grown at 37° C./6% CO2 overnight. On the day of the assay, 1.5 μM fluo-4-AM (Invitrogen) in complete medium is added to the cells, which are then incubated for 1 hour at RT. Cells are washed once in Ca^2+-free HBSS (Hank's buffered saline solution) and 35 μl of Ca^2+-free HBSS is added to each well. Test compounds are added to wells in a 10 μL Ca^2+-free HBSS solution, prepared at 4.5× the desired final concentration, and incubated for 30 minutes at RT. The initial baseline fluorescence signal is then measured with a FLIPR^384 (Molecular Devices) plate reader. Calcium entry is initiated by adding 5 μl of 10× CaCl2 (10 mM) in HBSS, and changes in cellular fluorescence are measured with the FLIPR^384 plate reader. In each well, the magnitude of the fluorescence signal as a result of calcium entry into the cell is determined by calculating the difference between the peak fluorescence signal measured after calcium addition and the initial baseline fluorescence signal (designated Peak-Basal). IC50 values are typically calculated as the concentration that inhibited 50% of the Peak-Basal signal.

The next test concerns RBL-2H3 cells. Kind of test: Fluorescence-based assay of store-operated calcium entry in RBL-2H3 cells. As to conditions: thapsigargin, 50% inhibition of Upslope, read-out: RBL-2H3 (IC50, μmol). It is filed as cell-based, rat. The procedure: B. Fluorescence-Based Assay of Store-Operated Calcium Entry in RBL-2H3 Cells.
RBL-2H3 cells are obtained from ATCC and maintained in complete medium with 10% FBS at 37° C./6% CO2.
The day prior to performing the assay, RBL-2H3 cells are plated in 50 μL of complete medium in a 384 well plate. Cells are grown at 37° C./6% CO2 overnight and grow to 50-60% confluence by the next day. On the assay day, 1.5 μM Fluo-4-AM dye (Invitrogen) in complete medium is added and incubated for 1 hour at RT. Cells are washed twice in Ca^2+-free HBSS buffer and 35 μL Ca^2+-free HBSS buffer is added to each well. 10 μL of a test compound prepared in a Ca^2+-free HBSS solution at 4.5× of the desired concentration is added to a well and incubated for 5 minutes at RT. 10 μL of thapsigargin prepared in a Ca^2+-free HBSS solution at 5.5× of the desired concentration (5.5 uM) is added to each well and incubated for an additional 25 minutes. The initial baseline fluorescence signal is measured with a FLIPR^384 (Molecular Devices) plate reader. 5 μL of 12× calcium in HBSS (12 mM) is added and changes in cellular fluorescence are measured with the FLIPR^384 plate reader. In each well, the change in the fluorescent signal as a function of time due to calcium entry into the cell is determined by calculating the difference between the fluorescent signal measured 7 seconds after calcium addition and the initial baseline fluorescence signal at time zero (t=0). This parameter is designated Upslope. The IC50 value is calculated as the concentration at which 50% of the Upslope is inhibited.

Like-named read-outs stand apart in the source and are kept apart here.

T1 sequence (Q96D31 whole entry): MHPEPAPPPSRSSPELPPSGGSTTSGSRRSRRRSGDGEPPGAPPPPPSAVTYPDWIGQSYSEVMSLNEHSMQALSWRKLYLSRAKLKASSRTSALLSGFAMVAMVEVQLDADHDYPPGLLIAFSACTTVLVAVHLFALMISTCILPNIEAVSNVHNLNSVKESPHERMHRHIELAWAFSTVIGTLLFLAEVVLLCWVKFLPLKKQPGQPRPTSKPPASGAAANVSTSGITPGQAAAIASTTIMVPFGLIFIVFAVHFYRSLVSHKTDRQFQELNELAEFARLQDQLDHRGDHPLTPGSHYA

Turning to `Cc1nn(-c2nccs2)cc1-c1ccc(NC(=O)c2c(F)cccc2F)nc1` [Example 18, 2,6-difluoro-N-(5-(3-methyl-1-(thiazol-2-yl)-1H-pyrazol-4-yl)pyridin-2-yl)benzamide], the IC50 is less than 600 nM on Orai1/STIM1 and less than 600 nM with RBL-2H3 cells (Rattus norvegicus, RBL-2H3).

`Cc1cnc(-n2cc(-c3ccc(NC(=O)c4c(F)ccc(F)c4F)nc3)c(C)n2)s1` [Example 64, 2,3,6-trifluoro-N-(5-(3-methyl-1-(5-methylthiazol-2-yl)-1H-pyrazol-4-yl)pyridin-2-yl)benzamide]: the IC50 at Orai1/STIM1 is less than 600 nM; with RBL-2H3 cells (Rattus norvegicus, RBL-2H3), less than 600 nM.

In the case of `Cc1nn(-c2nccs2)cc1-c1ccc(NC(=O)c2cc(F)nc(F)c2)nc1` [Example 23, 2,6-difluoro-N-(5-(3-methyl-1-(thiazol-2-yl)-1H-pyrazol-4-yl)pyridin-2-yl)isonicotinamide], the IC50 on Orai1/STIM1 is less than 600 nM; with RBL-2H3 cells (Rattus norvegicus, RBL-2H3), less than 600 nM.

As for `CCc1nn(-c2nccs2)cc1-c1ccc(NC(=O)c2c(F)cccc2F)nc1` [Example 35, N-(5-(3-ethyl-1-(thiazol-2-yl)-1H-pyrazol-4-yl)pyridin-2-yl)-2,6-difluorobenzamide], the IC50 was less than 600 nM at Orai1/STIM1 and less than 600 nM in the test with RBL-2H3 cells (Rattus norvegicus, RBL-2H3).

In the case of `O=C(Nc1cnc(-c2cn(-c3nccs3)nc2C2CC2)cn1)c1c(F)ccc(F)c1F` [Example 48, N-(5-(3-cyclopropyl-1-(thiazol-2-yl)-1H-pyrazol-4-yl)pyrazin-2-yl)-2,3,6-trifluorobenzamide], the IC50 at Orai1/STIM1 is greater than 1200 nM; in the test on RBL-2H3 cells (Rattus norvegicus, RBL-2H3), less than 600 nM.

As for `Cc1nn(-c2nccs2)cc1-c1ccc(NC(=O)c2c(F)cc(F)cc2F)cc1F` [Example 14, 2,4,6-trifluoro-N-(3-fluoro-4-(3-methyl-1-(thiazol-2-yl)-1H-pyrazol-4-yl)phenyl)benzamide], the IC50 was less than 600 nM at Orai1/STIM1 and less than 600 nM in the test on RBL-2H3 cells (Rattus norvegicus, RBL-2H3).

For the compound `Cc1ccc(F)c(C(=O)Nc2cnc(-c3cn(-c4nccs4)nc3C)cn2)c1F` [Example 30, 2,6-difluoro-3-methyl-N-(5-(3-methyl-1-(thiazol-2-yl)-1H-pyrazol-4-yl)pyrazin-2-yl)benzamide], the IC50 at Orai1/STIM1 was 600 to 1200 nM; in the test with RBL-2H3 cells (Rattus norvegicus, RBL-2H3), less than 600 nM.

As to `O=C(Nc1ccc(-c2cn(-c3nccs3)nc2C2CC2)cn1)c1c(F)cccc1F` [Example 44, N-(5-(3-cyclopropyl-1-(thiazol-2-yl)-1H-pyrazol-4-yl)pyridin-2-yl)-2,6-difluorobenzamide], the IC50 at Orai1/STIM1 is less than 600 nM; in the test with RBL-2H3 cells (Rattus norvegicus, RBL-2H3) it was less than 600 nM.

Consider `CCc1nn(-c2nccs2)cc1-c1cnc(NC(=O)c2c(F)cccc2F)cn1` [Example 38, N-(5-(3-ethyl-1-(thiazol-2-yl)-1H-pyrazol-4-yl)pyrazin-2-yl)-2,6-difluorobenzamide], for which the IC50 was less than 600 nM at Orai1/STIM1 and less than 600 nM in the test on RBL-2H3 cells (Rattus norvegicus, RBL-2H3).

`Cc1nn(-c2nccs2)cc1-c1ccc(NC(=O)c2ccccc2F)cc1F` [Example 11, 2-fluoro-N-(3-fluoro-4-(3-methyl-1-(thiazol-2-yl)-1H-pyrazol-4-yl)phenyl)benzamide]: the IC50 is less than 600 nM at Orai1/STIM1 and less than 600 nM with RBL-2H3 cells (Rattus norvegicus, RBL-2H3).

Take `Cc1nn(-c2ccccc2F)cc1-c1ccc(NC(=O)c2ccccc2OC(F)F)nc1` [Example 61, 2-(difluoromethoxy)-N-(5-(1-(2-fluorophenyl)-3-methyl-1H-pyrazol-4-yl)pyridin-2-yl)benzamide]: the IC50 on Orai1/STIM1 was greater than 1200 nM; in the test with RBL-2H3 cells (Rattus norvegicus, RBL-2H3), greater than 1200 nM.

With `Cc1nn(-c2nccs2)cc1-c1ccc(NC(=O)c2ccccc2OC(F)F)s1` [Example 72, 2-(difluoromethoxy)-N-(5-(3-methyl-1-(thiazol-2-yl)-1H-pyrazol-4-yl)thiophen-2-yl)benzamide], the IC50 at Orai1/STIM1 is 600 to 1200 nM; in the test on RBL-2H3 cells (Rattus norvegicus, RBL-2H3), greater than 1200 nM.

For `CCc1nn(-c2nccs2)cc1-c1ccc(NC(=O)c2c(F)cccc2F)cc1F` [Example 31, N-(4-(3-ethyl-1-(thiazol-2-yl)-1H-pyrazol-4-yl)-3-fluorophenyl)-2,6-difluorobenzamide], the IC50 was less than 600 nM at Orai1/STIM1 and less than 600 nM in the test on RBL-2H3 cells (Rattus norvegicus, RBL-2H3).

In the case of `O=C(Nc1ccc(-c2cn(-c3nccs3)nc2C2CC2)cn1)c1c(F)cc(F)cc1F` [Example 46, N-(5-(3-cyclopropyl-1-(thiazol-2-yl)-1H-pyrazol-4-yl)pyridin-2-yl)-2,4,6-trifluorobenzamide], the IC50 on Orai1/STIM1 was 600 to 1200 nM; in the test on RBL-2H3 cells (Rattus norvegicus, RBL-2H3), less than 600 nM.

As for `O=C(Nc1ccc(-c2cn(-c3nccs3)nc2C(F)(F)F)cn1)c1c(F)ccc(F)c1F` [Example 53, 2,3,6-trifluoro-N-(5-(1-(thiazol-2-yl)-3-(trifluoromethyl)-1H-pyrazol-4-yl)pyridin-2-yl)benzamide], the IC50 on Orai1/STIM1 is 600 to 1200 nM; in the test on RBL-2H3 cells (Rattus norvegicus, RBL-2H3) it was less than 600 nM.

On to `Cc1nn(-c2nccs2)cc1-c1ccc(NC(=O)c2c(F)cccc2F)cc1F` [Example 10, 2,6-difluoro-N-(3-fluoro-4-(3-methyl-1-(thiazol-2-yl)-1H-pyrazol-4-yl)phenyl)benzamide], for which the IC50 was less than 600 nM at Orai1/STIM1 and less than 600 nM in the test with RBL-2H3 cells (Rattus norvegicus, RBL-2H3).

Take `CCc1nn(-c2nccs2)cc1-c1nnc(NC(=O)c2c(F)ccc(F)c2F)s1` [Example 68, N-(5-(3-ethyl-1-(thiazol-2-yl)-1H-pyrazol-4-yl)-1,3,4-thiadiazol-2-yl)-2,3,6-trifluorobenzamide]: the IC50 was 600 to 1200 nM on Orai1/STIM1 and less than 600 nM in the test on RBL-2H3 cells (Rattus norvegicus, RBL-2H3).

As to `CCc1nn(-c2nccs2)cc1-c1ccc(NC(=O)c2c(F)cccc2F)cc1` [Example 6, N-(4-(3-ethyl-1-(thiazol-2-yl)-1H-pyrazol-4-yl)phenyl)-2,6-difluorobenzamide], the IC50 on Orai1/STIM1 is less than 600 nM; in the test on RBL-2H3 cells (Rattus norvegicus, RBL-2H3), less than 600 nM.

Regarding `CCc1nn(-c2nccs2)cc1-c1ccc(NC(=O)c2c(F)cc(F)cc2F)cc1F` [Example 33, N-(4-(3-ethyl-1-(thiazol-2-yl)-1H-pyrazol-4-yl)-3-fluorophenyl)-2,4,6-trifluorobenzamide], the IC50 on Orai1/STIM1 is greater than 1200 nM; with RBL-2H3 cells (Rattus norvegicus, RBL-2H3), less than 600 nM.

Take “N-(5-(3-ethyl-1-(thiazol-2-yl)-1H-pyrazol-4-yl)pyrazin-2-yl)-2,4,6-trifluorobenzamide [Example 40]”: the IC50 on Orai1/STIM1 and with RBL-2H3 cells was less than 600 nM throughout.

In the case of `Cc1cn(-c2nccs2)nc1-c1ccc(NC(=O)c2c(F)cccc2F)cc1F` [Example 66, 2,6-difluoro-N-(3-fluoro-4-(4-methyl-1-(thiazol-2-yl)-1H-pyrazol-3-yl)phenyl)benzamide], the IC50 on Orai1/STIM1 is greater than 1200 nM; with RBL-2H3 cells (Rattus norvegicus, RBL-2H3), less than 600 nM.

For the compound `CC(C)(C)c1nn(-c2nccs2)cc1-c1ccc(NC(=O)c2c(F)cccc2F)nc1` [Example 54, N-(5-(3-tert-butyl-1-(thiazol-2-yl)-1H-pyrazol-4-yl)pyridin-2-yl)-2,6-difluorobenzamide], the “Orai1/STIM1 (IC50, μmol)” value at Orai1/STIM1 is “—”. In addition, in the test with RBL-2H3 cells (Rattus norvegicus, RBL-2H3), the IC50 was less than 600 nM.

On to “N-(5-(3-ethyl-1-(thiazol-2-yl)-1H-pyrazol-4-yl)pyrazin-2-yl)-2,3,6-trifluorobenzamide [Example 39]”, for which the IC50 on Orai1/STIM1 was 600 to 1200 nM; with RBL-2H3 cells, less than 600 nM.

As for `CCc1nn(-c2nccs2)cc1-c1ccc(NC(=O)c2c(F)ccc(F)c2F)cc1F` [Example 32, N-(4-(3-ethyl-1-(thiazol-2-yl)-1H-pyrazol-4-yl)-3-fluorophenyl)-2,3,6-trifluorobenzamide], the IC50 on Orai1/STIM1 is greater than 1200 nM; in the test with RBL-2H3 cells (Rattus norvegicus, RBL-2H3), less than 600 nM.

For the origin of these results see patent publication US9611263B2, “Compounds that modulate intracellular calcium” (CALCIMEDICA, INC., priority 2013, dated 2017).
